In experiment [1] the test system is T47D (PI3Kα-H1047R) cell line. As to the kind of experiment: HTRF phospho-AKT(S473) cell assay in T47D cells. In kind it is cell-based, human. The note with it: Homo sapiens; T47D (PI3Kα-H1047R) cells, HTRF phospho-AKT(S473), 2 hours compound incubation. On the procedure: (§1) Compounds in the present disclosure were tested in a cell based HTRF phospho-AKT(S473) (CisBio/Revvity) assay in human breast cancer cell lines as a measurement of PIK3CA activity through measuring AKT, a downstream effector. The activity of mutant PI3Kα-H1047R and PI3Kα-Wild Type was measured in the T47D (PI3Kα-H1047R) and SKBR3 (PI3Kα-Wild Type) cell lines, respectively. T47D cells were plated at 20,000 cells per well in 50 μL in RPMI medium supplemented with 10% FBS and 0.2 units/mL insulin, in 384 well plates. SKBR3 cells were plated at 25,000 cells per well in 50 μL in McCoy's 5A medium supplemented with 10% FBS, in 384 well plates. Cells were plated using a Combi Multidrop reagent dispenser (ThermoFisher), and placed in 5% CO2, 37° C. incubator overnight to adhere.
(§2) The next day, cells were treated with either compounds or vehicle (DMSO) in a 12-fold dose response curve of 1:3 dilutions, with 5 μM and 10 μM as the top concentrations for the T47D and SKBR3 cell lines, respectively. Compound treatment was facilitated via the D300e digital dispenser (Tecan), with a maximum DMSO concentration of 0.5%. Following compound addition, cell plates were incubated for 2 hours in 5% CO2, 37° C. incubator. The SKBR3 cells were stimulated and treated with 70 ng/ml PDGF-BB ligand (ThermoFisher) for the remaining 15 minutes of the incubation. Following compound incubation, compound and media was aspirated from the cells and 25 μL of supplemented lysis buffer was added per well, and incubated for 45 minutes at room temperature, shaking at 600 rpm. Next, 16 μL of cell lysate was added to a 384 well low volume ProxyPlate (Perkin Elmer/Revvity) mixed with 4 μL of HTRF antibodies (1:1 Eu Cryptate+d2 Cryptate). HTRF supplemented lysis buffer and antibody reagents were used from the phosphor-AKT(S473) HTRF assay kit (CisBio/Revvity), following manufacturers protocol recommendations. Plates were sealed and incubated at 4° C. overnight.
(§3) The following day, plates were centrifuged for 1 minute at 1000 rpm, and read on a PHERAstar plate reader. IC50 values were calculated using Spotfire software.
(In general: Time-resolved FRET reads energy transfer from a long-lived donor to a nearby acceptor.)

Experiment [2] deals with SKBR3 (PI3Kα-Wild Type) cell line. As to the kind of experiment: HTRF phospho-AKT(S473) cell assay in SKBR3 cells. The note with it: Homo sapiens, SK-BR-3; SKBR3 (PI3Kα-Wild Type) cells, HTRF phospho-AKT(S473), 2 hours compound incubation, PDGF-BB stimulated. In kind it is cell-based, human. On the procedure:
as §1, §2, §3

Where only a bound is given, the exact number is not on record here.

Consider `Cc1cc([C@@H](C)Nc2ccc(Cl)nc2C(=O)NS(C)(=O)=O)c2nc(N3CCC[C@H](c4ccc(C)nc4)C3)n(C)c(=O)c2c1` (relative stereo) [Compound 237, 6-chloro-3-(((R)-1-(3,6-dimethyl-2-((R*)-3-(6-methylpyridin-3-yl)piperidin-1-yl)-4-oxo-3,4-dihydroquinazolin-8-yl)ethyl)amino)-N-(methylsulfonyl) picolinamide], for which the IC50 in experiment [1] was less than 250 nM; in experiment [2] it was 1000 to 5000 nM.

On to `Cc1cc([C@@H](C)Nc2ccc(Cl)nc2C(=O)NS(C)(=O)=O)c2nc(N3CCC[C@@H](c4ccc(C)nc4)C3)n(C)c(=O)c2c1` (relative stereo) [Compound 238, 6-chloro-3-(((R)-1-(3,6-dimethyl-2-((R*)-3-(6-methylpyridin-3-yl)piperidin-1-yl)-4-oxo-3,4-dihydroquinazolin-8-yl)ethyl)amino)-N-(methylsulfonyl) picolinamide], for which the IC50 in experiment [1] is less than 250 nM; in experiment [2] it was 1000 to 5000 nM.

For `Cc1cc([C@@H](C)Nc2ccc(Cl)nc2C(=O)NS(C)(=O)=O)c2nc(N3CCC[C@@H](c4cncc(C#N)c4)C3)n(C)c(=O)c2c1` (relative stereo) [Compound 263, 6-chloro-3-(((R)-1-(2-((R*)-3-(5-cyanopyridin-3-yl)piperidin-1-yl)-3,6-dimethyl-4-oxo-3,4-dihydroquinazolin-8-yl)ethyl)amino)-N-(methylsulfonyl) picolinamide], the IC50 in experiment [1] is less than 250 nM; in experiment [2], 1000 to 5000 nM.

On to `Cc1cc([C@@H](C)Nc2ccc(Cl)nc2C(=O)NS(C)(=O)=O)c2nc(N3Cc4cnn([C@@H](C)C(F)(F)F)c4C3)n(C)c(=O)c2c1` (relative stereo) [Compound 284, 6-chloro-3-(((R)-1-(3,6-dimethyl-4-oxo-2-(1-((R*)-1,1,1-trifluoropropan-2-yl)-4,6-dihydropyrrolo[3,4-c]pyrazol-5(1H)-yl)-3,4-dihydroquinazolin-8-yl)ethyl)amino)-N-(methylsulfonyl) picolinamide], for which the values for the IC50 in experiment [1] and in experiment [2] were less than 250 nM and 1000 to 5000 nM, respectively.

With `Cc1cc([C@@H](C)Nc2ccc(Cl)nc2C(=O)NS(C)(=O)=O)c2nc(N3CCC[C@H](c4conc4C)C3)n(C)c(=O)c2c1` (relative stereo) [Compound 306, 6-chloro-3-(((R)-1-(3,6-dimethyl-2-((R*)-3-(3-methylisoxazol-4-yl)piperidin-1-yl)-4-oxo-3,4-dihydroquinazolin-8-yl)ethyl)amino)-N-(methylsulfonyl) picolinamide], the half-maximal inhibitory concentration (IC50) in experiment [1] was less than 250 nM; in experiment [2], 1000 to 5000 nM.

On to `Cc1cc([C@@H](C)Nc2ccc(Cl)nc2C(=O)NS(C)(=O)=O)c2nc(N3CCC[C@H](c4ccc(N)cn4)C3)n(C)c(=O)c2c1` (relative stereo) [Compound 307, 3-(((R)-1-(2-((R*)-3-(5-aminopyridin-2-yl)piperidin-1-yl)-3,6-dimethyl-4-oxo-3,4-dihydroquinazolin-8-yl)ethyl)amino)-6-chloro-N-(methylsulfonyl) picolinamide], for which the IC50 in experiment [1] was less than 250 nM; in experiment [2], no less than 5000 nM.

As for `Cc1cc([C@@H](C)Nc2ccc(Cl)nc2C(=O)NS(C)(=O)=O)c2nc(N3CCO[C@H](c4cnn(C)c4)C3)n(C)c(=O)c2c1` (relative stereo) [Compound 313, 6-chloro-3-(((R)-1-(3,6-dimethyl-2-((R*)-2-(1-methyl-1H-pyrazol-4-yl)morpholino)-4-oxo-3,4-dihydroquinazolin-8-yl)ethyl)amino)-N-(methylsulfonyl) picolinamide], the IC50 in experiment [1] was 250 to 500 nM; in experiment [2], 1000 to 5000 nM.

`Cc1cc([C@@H](C)Nc2ccc(Cl)nc2C(=O)NS(C)(=O)=O)c2nc(N3CCO[C@@H](c4cnn(C)c4)C3)n(C)c(=O)c2c1` (relative stereo) [Compound 314, 6-chloro-3-(((R)-1-(3,6-dimethyl-2-((R*)-2-(1-methyl-1H-pyrazol-4-yl)morpholino)-4-oxo-3,4-dihydroquinazolin-8-yl)ethyl)amino)-N-(methylsulfonyl) picolinamide]: the IC50 in experiment [1] was less than 250 nM; in experiment [2] it was no less than 5000 nM.

`Cc1cc([C@@H](C)Nc2ccc(Cl)nc2C(=O)NS(C)(=O)=O)c2nc([C@@H]3CCCN(c4cc[nH]n4)C3)n(C)c(=O)c2c1` (relative stereo) [Compound 322, 3-(((R)-1-(2-((R*)-1-(1H-pyrazol-3-yl)piperidin-3-yl)-3,6-dimethyl-4-oxo-3,4-dihydroquinazolin-8-yl)ethyl)amino)-6-chloro-N-(methylsulfonyl) picolinamide]: the half-maximal inhibitory concentration (IC50) was less than 250 nM in experiment [1] and 1000 to 5000 nM in experiment [2].

On to `Cc1cc([C@@H](C)Nc2ccc(Cl)nc2C(=O)NS(C)(=O)=O)c2nc(N3CC[C@H](c4ccn(C)n4)CC3(C)C)n(C)c(=O)c2c1` (relative stereo) [Compound 323, 6-chloro-3-(((R)-1-(2-((R*)-2,2-dimethyl-4-(1-methyl-1H-pyrazol-3-yl)piperidin-1-yl)-3,6-dimethyl-4-oxo-3,4-dihydroquinazolin-8-yl)ethyl)amino)-N-(methylsulfonyl) picolinamide], for which the concentration for half-maximal inhibition (IC50) was 250 to 500 nM in experiment [1] and no less than 5000 nM in experiment [2].

Turning to `Cc1cc([C@@H](C)Nc2ccc(Cl)nc2C(=O)NS(C)(=O)=O)c2nc(N3CC[C@@H](c4ccn(C)n4)CC3(C)C)n(C)c(=O)c2c1` (relative stereo) [Compound 324, 6-chloro-3-(((R)-1-(2-((R*)-2,2-dimethyl-4-(1-methyl-1H-pyrazol-3-yl)piperidin-1-yl)-3,6-dimethyl-4-oxo-3,4-dihydroquinazolin-8-yl)ethyl)amino)-N-(methylsulfonyl) picolinamide], the IC50 in experiment [1] was less than 250 nM; in experiment [2] it was no less than 5000 nM.

On to `Cc1cc([C@@H](C)Nc2ccc(Cl)nc2C(=O)NS(=O)(=O)[C@H]2C[C@@H](O)C2)c2nc(N3Cc4ccc(F)cc4C3)n(C)c(=O)c2c1` (relative stereo) [Compound 337, 6-chloro-3-(((R)-1-(2-(5-fluoroisoindolin-2-yl)-3,6-dimethyl-4-oxo-3,4-dihydroquinazolin-8-yl)ethyl)amino)-N-(((1S*,3S*)-3-hydroxycyclobutyl)sulfonyl)picolinamide], for which the IC50 is less than 250 nM in experiment [1] and 1000 to 5000 nM in experiment [2].

With `Cc1cc([C@@H](C)Nc2ccc(Cl)nc2C(=O)NS(C)(=O)=O)c2nc(N3C[C@@H]4C[C@H](c5cc[nH]n5)[C@H]3C4)n(C)c(=O)c2c1` (relative stereo) [Compound 347, 3-(((R)-1-(2-((1R,4R,6R*)-6-(1H-pyrazol-3-yl)-2-azabicyclo[2.2.1]heptan-2-yl)-3,6-dimethyl-4-oxo-3,4-dihydroquinazolin-8-yl)ethyl)amino)-6-chloro-N-(methylsulfonyl) picolinamide], the IC50 is 250 to 500 nM in experiment [1] and no less than 5000 nM in experiment [2].

`Cc1cc([C@@H](C)Nc2ccc(Cl)nc2C(=O)NS(C)(=O)=O)c2nc(N3C[C@H]4C[C@@H]3C[C@H]4c3ccn(C)n3)n(C)c(=O)c2c1` (relative stereo) [Compound 355, 6-chloro-3-(((R)-1-(3,6-dimethyl-2-((1R*,4S*,5R*)-5-(1-methyl-1H-pyrazol-3-yl)-2-azabicyclo[2.2.1]heptan-2-yl)-4-oxo-3,4-dihydroquinazolin-8-yl)ethyl)amino)-N-(methylsulfonyl) picolinamide]: the IC50 in experiment [1] was less than 250 nM; in experiment [2] it was 1000 to 5000 nM.

The IC50 is the midpoint of a concentration-inhibition curve. Read a low IC50 as greater potency.

Source of the values: patent US12281122B1, “PI3K inhibitors” (Cogent Biosciences, Inc., priority 2023, dated 2025).
